The supplement of paper PMC5908809

Experiments:
Test in all cases: relative IC50 (inflection point of fitted viability curve, relative to fitted max inhibition); higher = less sensitive
Settings in all cases: 72 h
[1] = system: DERL-7 (IL-2 2.5 ng/mL)
Protocol: (§1)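 Drug sensitivity and resistance testing: 5 concentrations over a 10,000-fold range, 72 h at 37 °C, viability by CellTiter-Glo normalised to DMSO and benzethonium chloride controls. IC50 is the inflection point of a logistic fit (min fixed at 0, max fitted), so it is relative to the fitted maximal inhibition. Kept only where fitted max inhibition is at least 50%.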

[2] = system: IMC-1 (IL-2 20 ng/mL)
Protocol: as §1

[3] = system: KAI3 (IL-2 2.5 ng/mL)
Protocol: as §1

[4] = system: KHYG-1 (IL-2 2.5 ng/mL)
Protocol: as §1

[5] = system: NK-92 (IL-2 2.5 ng/mL)
Protocol: as §1

[6] = system: NK-YS (IL-2 2.5 ng/mL)
Protocol: as §1

[7] = system: NKL (IL-2 2.5 ng/mL)
Protocol: as §1

[8] = system: SNK-6 (IL-2 2.5 ng/mL)
Protocol: as §1

[9] = system: YT (IL-2 2.5 ng/mL)
Protocol: as §1

[10] = system: normal primary NK cells, pool 1 (3 donors) (IL-2 2.5 ng/mL)
Protocol: as §1

[11] = system: normal primary NK cells, pool 1 (3 donors), resting (IL-2 0 ng/mL)
Protocol: as §1

[12] = system: normal primary NK cells, pool 2 (3 donors) (IL-2 2.5 ng/mL)
Protocol: as §1

[13] = system: normal primary NK cells, pool 3 (3 donors) (IL-2 2.5 ng/mL)
Protocol: as §1

Structure (SMILES) | relative IC50 [1] | relative IC50 [2] | relative IC50 [3] | relative IC50 [4] | relative IC50 [5] | relative IC50 [6] | relative IC50 [7] | relative IC50 [8] | relative IC50 [9] | relative IC50 [10] | relative IC50 [11] | relative IC50 [12] | relative IC50 [13]
COc1c(C)cnc(Cn2cnc3c(Cl)nc(N)nc32)c1C [BIIB021] | 68.4 nM | 150 nM | 54.3 nM | 61.8 nM | 97.5 nM | 79.6 nM | 95.7 nM | 33.9 nM | 98.2 nM | 181 nM | 226 nM | 104 nM | 254 nM
CNC(=O)c1cc(Oc2ccc(NC(=O)Nc3ccc(Cl)c(C(F)(F)F)c3)c(F)c2)ccn1 [Regorafenib] | 1190 nM |  | 3360 nM | 2130 nM | 1040 nM | 1620 nM | 1570 nM | 86.7 nM | 1660 nM | 3020 nM | 1940 nM | 1750 nM | 
CCCCc1nc2cc(/C=C/C(=O)NO)ccc2n1CCN(CC)CC [Pracinostat] | 168 nM | 233 nM | 69 nM | 149 nM | 112 nM | 189 nM | 76.5 nM | 207 nM | 213 nM | 163 nM | 93.7 nM | 159 nM | 211 nM
O=C(/C=C/c1cccc(S(=O)(=O)Nc2ccccc2)c1)NO [Belinostat] | 161 nM | 173 nM | 82.5 nM | 128 nM | 81.7 nM | 182 nM | 152 nM | 156 nM | 213 nM | 113 nM | 83.9 nM | 143 nM | 200 nM
COc1cc(OC2CCN(C)CC2)ccc1Nc1ncc2c(n1)n(C1CCCC1)c(=O)n2C [AZ 3146] | 2330 nM | 2400 nM | 1580 nM | 2060 nM | 3770 nM | 1720 nM | 2070 nM | 1870 nM | 2020 nM | 3160 nM | 2250 nM | 2410 nM | 2660 nM
Nc1ccn([C@@H]2O[C@H](CO)[C@@H](O)[C@@H]2O)c(=O)n1 [Cytarabine] | 23 nM | 85.5 nM | 50 nM | 27.3 nM | 96 nM | 330 nM | 67.1 nM | 193 nM |  | 1440 nM | 1230 nM | 1900 nM | 2370 nM
COCC[n+]1c2c(n(Cc3cnccn3)c1C)C(=O)c1ccccc1C2=O [YM155] | 9.75 nM | < 1 nM | 10 nM | 17.1 nM | 17.8 nM | 15.5 nM | 3.09 nM | 32.5 nM | 7.77 nM | 691 nM | 209 nM | 780 nM | 1330 nM
CC[C@H](NC(=O)[C@H](C)NC)C(=O)N1C[C@@H](O)C[C@H]1Cc1c(-c2[nH]c3cc(F)ccc3c2C[C@@H]2C[C@H](O)CN2C(=O)[C@H](CC)NC(=O)[C@H](C)NC)[nH]c2cc(F)ccc12 [Birinapant] |  |  |  |  |  | > 1000 nM |  | > 1000 nM |  | 311 nM | 338 nM | 278 nM | 
O=C(Nc1ccc(-c2ccnc(Nc3ccc(N4CCOCC4)cc3)n2)cc1)C1CCCN1 (stereo not drawn) [XL019] | 1370 nM | 3200 nM | 1660 nM | 2490 nM |  |  | 658 nM |  |  | 2220 nM | 1380 nM | 1510 nM | 1870 nM
CN1CCC(CNc2ccc3ncc(-c4cccc(OC(F)(F)F)c4)n3n2)CC1 [SGI-1776] | 1120 nM | 3130 nM | 2000 nM | 2210 nM | 2480 nM | 2450 nM | 1780 nM | 3220 nM | 2540 nM | 2200 nM | 1580 nM | 1590 nM | 2520 nM
COc1ccc(CCc2nc3cc(-c4c(C)noc4C)ccc3n2C[C@H](C)N2CCOCC2)cc1Cl [SGC-CBP30] | 1490 nM |  | 10100 nM | 4750 nM | 10200 nM | 3300 nM | 1570 nM |  | 5050 nM | 3540 nM | 4340 nM | 3830 nM | 5310 nM
Nc1ccccc1NC(=O)c1ccc(CNC(=O)OCc2cccnc2)cc1 [Entinostat] | 1570 nM | 2330 nM | 399 nM | 954 nM | 479 nM | 1680 nM | 494 nM | 456 nM | 2460 nM | 1330 nM | 582 nM | 1530 nM | 2910 nM
C[C@@H]1CCN(C(=O)CC#N)C[C@@H]1N(C)c1ncnc2[nH]ccc12 [Tofacitinib] | 99.5 nM | 616 nM | 42.3 nM | 41 nM | 141 nM | 101 nM | 33.1 nM | 78 nM | 336 nM | 75 nM |  | 95.5 nM | 204 nM
Nc1nc(Cl)nc2c1ncn2[C@H]1C[C@H](O)[C@@H](CO)O1 [Cladribine] | 49.7 nM | 86 nM | 75.9 nM | 30.5 nM | 34.5 nM | 245 nM | 34.2 nM | 49.2 nM | 235 nM | 17.6 nM | 7.37 nM | 16.1 nM | 24.8 nM
CC(C)(C)c1cnc(CSc2cnc(NC(=O)C3CCNCC3)s2)o1 [SNS-032] | 61.3 nM | 36.2 nM | 75.8 nM | 277 nM | 224 nM | 38.6 nM | 22.6 nM | 74.8 nM | 84.1 nM | 45.8 nM | 53.4 nM | 54.3 nM | 102 nM
COc1cc2c(NC3CCN(C(C)C)CC3)nc(N3CCC(F)(F)CC3)nc2cc1OCCCN1CCCC1 [UNC0642] | 3160 nM | 2450 nM | 987 nM |  |  | 2440 nM | 1640 nM | 1530 nM | 2690 nM | 1810 nM | 1560 nM | 3390 nM | 3450 nM
